# According to patent publication US6635459B1, “Nucleotide sequences encoding pinoresinol/lariciresinol reductase proteins and their methods of use” (Washington State University Research Foundation, priority 1996, dated 2003):
# B1: Dirigent protein: 78-kD protein purified from Forsythia intermedia stems that guides stereoselective coupling of E-coniferyl alcohol radicals to (+)-pinoresinol (protein)
# chain: MVSKTQIVALFLCFLTSTSSATYGRKPRPRRPCKELVFYFHDVLFKGNNYHNATSAIVGSPQWGNKTAMAVPFNYGDLVVFDDPITLDNNLHSPPVGRAQGMYFYDQKNTYNAWLGFSFLFNSTKYVGTLNFAGADPLLNKTRDISVIGGTGDFFMARGVATLMTDAFEGDVYFRLRVDINLYECW
# B2: 35 kDa form of (+)-pinoresinol/(+)-lariciresinol reductase (Forsythia x intermedia) (protein)
# chain: GKSKVLIIGGTGYLGRRLVKASLAQGHETYILHRPEIGVDIDKVEMLISFKMQGAHLVSGSFKDFNSLVEAVKLVDVVISAISGVHIRSHQILLQLKLVEAIKEAGNVKRFLPSEFGMDPAKFMDTAMEPGKVTLDEKMVVRKAIEKAGIPFTYVSANCFAGYFLGGLCQFGKILPSRDFVIIHGDGNKKAIYNNEDDIATYAIKTINDPRTLNKTIYISPPKNILSQREVVQTWEKLIGKELQKITLSKEDFLASVKELEYAQQVGLSHYHDVNYQGCLTSFEIGDEEEASKLYPEVKYTSVEEYLKRYV
# notes: pure enzyme (after MonoQ anion-exchange chromatography); from tissue; host or cells: Forsythia intermedia stems
# B3: 36 kDa form of (+)-pinoresinol/(+)-lariciresinol reductase (Forsythia x intermedia) (protein)
# chain: B2 chain
# How the values were obtained:
# [1] = tested on: E-sinapyl alcohol; assay: E-sinapyl alcohol coupling assay (oxidant with/without dirigent protein); type: biochemical, Forsythia intermedia; settings: 6 hour assay
# Protocol: Investigation of Substrate-Specific Stereoselectivity. The coupling stereoselectivity was substrate specific. Neither E-p-[9-^3H]coumaryl (4 μmol ml^−1, 44.5 kBq) or E-[8-^14C]sinapyl alcohols (4 μmol ml^−1, 8.3 kBq), which differ from E-coniferyl alcohol only by a methoxyl group substituent on the aromatic ring, yielded stereoselective products when incubated for 6 hours with FMN and ammonium peroxydisulfate respectively, in the presence and absence of the dirigent protein. Incubations were carried out as described above with the following modifications: E-p-[9-^3H]coumaryl (4 μmol ml^−1, 44.5 kBq) or E-[8-^14C]sinapyl alcohols (4 μmol ml^−1, 8.3 kBq) were used as substrates and, after 6 hour incubation at 30° C., the reaction mixture was extracted with EtOAc but without addition of radiochemical carriers.
# [2] = tested on: E-coniferyl alcohol; assay: E-coniferyl alcohol coupling assay (oxidant with/without dirigent protein); type: biochemical, Forsythia intermedia; settings: 6 hour assay
# Protocol: E-coniferyl alcohol coupling assay. E-[9-^3H]Coniferyl alcohol (4 μmol ml^−1, 29.3 kBq) was incubated with a 120-kD laccase (previously purified from Forsythia intermedia stem tissue) over a […], in the presence and absence of the dirigent protein, as follows. Each assay consisted of E-[9-^3H]coniferyl alcohol (4 μmol ml^−1, 29.3 kBq, 7.3 MBq mole liter^−1; or 2 μmol ml^−1, 14.7 kBq with fraction III), the 78-kD dirigent protein, an oxidase or oxidant, or both [final concentrations: 770 pmol ml^−1 dirigent protein; 10.7 pmol protein ml^−1 Forsythia laccase; 12 μg protein ml^−1 fraction III; 0.5 μmol ml^−1 FMN; 0.5 μmol ml^−1 FAD; 1 and 10 μmol ml^−1 ammonium peroxydisulfate] in buffer (0.1 M MES-HEPES-sodium acetate, pH 5.0) to a total volume of 250 μl. The enzymatic reaction was initiated by addition of E-[9-^3H]coniferyl alcohol. Controls were performed in the presence of buffer alone.
# After one hour incubation at 30° C. while shaking, the assay mixture was extracted with ethyl acetate (EtOAc, 500 μl) containing (±)-pinoresinols (7.5 μg), (±)-dehydrodiconiferyl alcohols (3.5 μg) and erythro/threo (±)-guaiacylglycerol 8-O-4′-coniferyl alcohol ethers (7.5 μg) as radiochemical carriers and ferulic acid (15.0 μg) as an internal standard. After centrifugation (13,800 g, 5 min), the EtOAc soluble components were removed and the extraction procedure repeated with EtOAc (500 μl). The EtOAc soluble components from each assay were combined, the solutions evaporated to dryness in vacuo, redissolved in methanol-water solution (1:1; 100 μl) with an aliquot (50 μl) thereof subjected to reversed-phase column chromatography (Waters, Nova-Pak C18, 150 mm by 3.8 mm). The elution conditions were as follows: acetonitrile/3% acetic acid in H2O (5:95) from 0 to 5 min, then linear gradients to ratios of 10:90 between 5 and 20 min, then to 20:80 between 20 and 45 min and finally to 50:50 between 45 and 60 min, at a flow rate of 8.8 ml min^−1 cm^−2.
# Fractions corresponding to E-coniferyl alcohol, erythro/threo (±)-guaiacylglycerol 8-O-4′-coniferyl alcohol ethers, (±)-dehydrodiconiferyl alcohols and (±)-pinoresinols were individually collected, aliquots removed for liquid scintillation counting, and the remainder freeze-dried. Pinoresinol-containing fractions were redissolved in methanol (100 μl) and subjected to chiral column chromatography (Daicel, Chiralcel OD, 50 mm by 4.6 mm) with a solution of hexanes and ethanol (1:1) as the mobile phase (flow rate 3 ml min^−1 cm^−2), whereas dehydrodiconiferyl alcohol fractions were subjected to Chiralcel OF (250 mm by 4.6 mm) column chromatography eluted with a solution of hexanes and isopropanol (9:1) as the mobile phase (flow rate 2.4 ml min^−1 cm^−2), the radioactivity of the eluent being measured with a flow-through detector (Radiomatic, Model A120).
# Ammonium peroxydisulfate readily undergoes homolytic cleavage (A. Usaitis, R. Makuska, Polymer 35:4896 (1994)) and is routinely used as an one-electron oxidant in acrylamide polymerization. Ammonium peroxydisulfate was first incubated with E-[9-^3H]coniferyl alcohol (4 μmol ml^−1, 29.3 kBq) for 6 hours using the E-coniferyl alcohol coupling assay procedure described above.
# [3] = tested on: HW-1; settings: cited from earlier work
# [4] = tested on: E-coniferyl alcohol; assay: Kinetic characterization of conversion of E-coniferyl alcohol to (+)-pinoresinol with dirigent protein and oxidase/oxidant; type: biochemical, Forsythia intermedia; settings: (+)-pinoresinol formation from E-coniferyl alcohol, dirigent protein 770 pmol ml^−1 alone or with Fraction III 12 μg protein ml^−1, laccase 2.07 pmol ml^−1, FMN 0.5 μmol ml^−1; for Km: read-out: Formal Km
# Protocol: Assays were carried out as described in Example 3 by incubating a series of E-[9-^3H]coniferyl alcohol concentrations (between 8.00 and 0.13 μmol ml^−1, 7.3 MBq mole literl) with dirigent protein (770 pmol ml^−1) alone and in presence of Forsythia laccase (2.1 pmol ml^−1), fraction III (12 μg protein ml^−1), or FMN (0.5 μmol ml^−1). Assays with dirigent protein, in presence or absence of FMN, were incubated at 30° C. for 1 hour, whereas assays with Forsythia laccase or fraction III in presence or absence of dirigent protein were incubated at 30° C. for 15 min. If free-radical capture by the dirigent protein is the operative mechanism, the Michaelis-Menten parameters obtained will only represent formal rather than true values, because the highest free-energy intermediate state during the conversion of E-coniferyl alcohol into (+)-pinoresinol is still unknown and the relation between the concentration of substrate and that of the corresponding intermediate free-radical in open solution has not been delineated.
# Bearing these qualifications in mind, we estimated formal Km and Vmax values for the dirigent protein preparation.
# [5] = tested on: HIV; settings: cited from earlier work
# [6] = tested on: E-coniferyl alcohol; assay: (+)-Pinoresinol-forming activity from E-[9-3H]coniferyl alcohol; type: biochemical, Forsythia intermedia
# [7] = substrate: COc1cc(C[C@H]2CO[C@H](c3ccc(O)c(OC)c3)[C@H]2CO)ccc1O; assay: Initial velocity studies, reductase 35 kDa isoform; type: biochemical, Forsythia intermedia; settings: other: 35 kDa form of the enzyme, NADPH 80 μM, pH 7.4, 30° C.
# Protocol: Kinetic Parameters. […] The initial velocity studies were carried out individually utilizing the two isoforms of the enzyme, and individually employing both (+)-pinoresinol and (+)-lariciresinol as substrates. Initial velocity studies were performed in triplicate experiments, using 50 mM Bis-Tris Propane buffer, pH 7.4 containing 5 mM dithiothreitol, pure enzyme (after MonoQ anion-exchange chromatography), ten different substrate concentrations (between 8.8 and 160 μM) at a constant NADPH concentration (80 μM). Incubations were carried out at 30° C. for 10 min (within the linear kinetic range). Kinetic parameters were determined from Lineweaver-Burk plots.
# [8] = substrate: COc1cc(C[C@H]2CO[C@H](c3ccc(O)c(OC)c3)[C@H]2CO)ccc1O; assay: purified protein, by the assay type; settings: other: 36 kDa form of the enzyme, NADPH 80 μM, pH 7.4, 30° C.
# [9] = dirigent protein absent, FMN 0.5 μmol ml^−1 or ammonium peroxydisulfate 10 μmol ml^−1
# [10] = dirigent protein present (770 pmol ml^−1), FMN 0.5 μmol ml^−1 or ammonium peroxydisulfate 10 μmol ml^−1
# [11] = ammonium peroxydisulfate 1 μmol ml^−1, dirigent protein absent
# [12] = ammonium peroxydisulfate 1 μmol ml^−1, dirigent protein present (770 pmol ml^−1)
# [13] = ammonium peroxydisulfate 10 μmol ml^−1, dirigent protein absent
# [14] = ammonium peroxydisulfate 10 μmol ml^−1, dirigent protein present (770 pmol ml^−1)
# [15] = dirigent protein (770 pmol ml^−1) alone, no added oxidant
molecule,measurement,setting,value
N.N.O=S(=O)(O)OOS(=O)(=O)O [Ammonium peroxydisulfate],E-Sinapyl alcohol in dimer equivalents depleted,[1]; [9],1400 ± 120 nmol/mL
same,Racemic (±)-syringaresinols,[1]; [9],1020 ± 40 nmol/mL
same,E-Sinapyl alcohol in dimer equivalents depleted,[1]; [10],1520 ± 10 nmol/mL
same,Racemic (±)-syringaresinols,[1]; [10],1060 ± 30 nmol/mL
same,(+)-Pinoresinol,[2]; [11],0 nmol/mL
same,(±)-Dehydro-diconiferyl alcohols,[2]; [11],35 ± 2 nmol/mL
same,(±)-Guaiacyl-glycerol 8-O-4′-coniferyl alcohol ethers,[2]; [11],10 ± 1 nmol/mL
same,(±)-Pinoresinols,[2]; [11],16 ± 0 nmol/mL
same,E-Coniferyl alcohol in dimer equivalents depleted,[2]; [11],200 ± 4 nmol/mL
same,Total dimers,[2]; [11],61 ± 3 nmol/mL
same,(+)-Pinoresinol,[2]; [12],130 ± 10 nmol/mL
same,(±)-Dehydro-diconiferyl alcohols,[2]; [12],13 ± 1 nmol/mL
same,(±)-Guaiacyl-glycerol 8-O-4′-coniferyl alcohol ethers,[2]; [12],6 ± 0 nmol/mL
same,(±)-Pinoresinols,[2]; [12],0 nmol/mL
same,E-Coniferyl alcohol in dimer equivalents depleted,[2]; [12],250 ± 55 nmol/mL
same,Total dimers,[2]; [12],149 ± 11 nmol/mL
same,(+)-Pinoresinol,[2]; [13],0 nmol/mL
same,(±)-Dehydro-diconiferyl alcohols,[2]; [13],250 ± 10 nmol/mL
same,(±)-Guaiacyl-glycerol 8-O-4′-coniferyl alcohol ethers,[2]; [13],90 ± 4 nmol/mL
same,(±)-Pinoresinols,[2]; [13],135 ± 4 nmol/mL
same,E-Coniferyl alcohol in dimer equivalents depleted,[2]; [13],860 ± 30 nmol/mL
same,Total dimers,[2]; [13],475 ± 17 nmol/mL
same,(+)-Pinoresinol,[2]; [14],450 ± 10 nmol/mL
same,(±)-Dehydro-diconiferyl alcohols,[2]; [14],90 ± 3 nmol/mL
same,(±)-Guaiacyl-glycerol 8-O-4′-coniferyl alcohol ethers,[2]; [14],30 ± 1 nmol/mL
same,(±)-Pinoresinols,[2]; [14],0 nmol/mL
same,E-Coniferyl alcohol in dimer equivalents depleted,[2]; [14],1030 ± 25 nmol/mL
same,Total dimers,[2]; [14],570 ± 14 nmol/mL
"COc1cc(C[C@]2(O)C(=O)OC[C@H]2Cc2ccc(OC)c(OC)c2)ccc1O (single isomer, unassigned) [(+)-enantiomer]",inhibition of in vitro replication of HW-1,[3],much less effective
"Cc1cc2nc3c(=O)[nH]c(=O)nc-3n(C[C@H](O)[C@H](O)[C@H](O)COP(=O)(O)O)c2cc1C [FMN, flavin mononucleotide]",E-Sinapyl alcohol in dimer equivalents depleted,[1]; [9],570 ± 100 nmol/mL
same,Racemic (±)-syringaresinols,[1]; [9],290 ± 40 nmol/mL
same,E-Sinapyl alcohol in dimer equivalents depleted,[1]; [10],610 ± 110 nmol/mL
same,Racemic (±)-syringaresinols,[1]; [10],340 ± 40 nmol/mL
same,Vmax,[4],0.024 ± 0.001 mol s^−1 mol^−1 dirigent protein
same,Km,[4],100 ± 10 µM
COc1cc(C[C@H]2C(=O)OC[C@@H]2Cc2ccc(OC)c(OC)c2)ccc1O [(−)-arctigenin],effectiveness against HIV (reverse transcriptase inhibitory activities),[5],effective against HIV
(−)-trachelogenin,inhibition of in vitro replication of HW-1,[3],inhibits
same,effectiveness against HIV (reverse transcriptase inhibitory activities),[5],effective against HIV
CC(Cc1ccc(O)c(O)c1)C(C)Cc1ccc(O)c(O)c1 (centres unmarked) [nordihydroguaiaretic acid],effectiveness against HIV (reverse transcriptase inhibitory activities),[5],effective against HIV
B1,E-Sinapyl alcohol in dimer equivalents depleted,[1]; [15],110 ± 10 nmol/mL
same,Racemic (±)-syringaresinols,[1]; [15],50 ± 10 nmol/mL
same,(+)-Pinoresinol,[2]; [15],55 ± 1 nmol/mL
same,(±)-Dehydro-diconiferyl alcohols,[2]; [15],8 ± 1 nmol/mL
same,(±)-Guaiacyl-glycerol 8-O-4′-coniferyl alcohol ethers,[2]; [15],5 ± 1 nmol/mL
same,(±)-Pinoresinols,[2]; [15],0 nmol/mL
same,E-Coniferyl alcohol in dimer equivalents depleted,[2]; [15],61 ± 20 nmol/mL
same,Total dimers,[2]; [15],68 ± 3 nmol/mL
same,Vmax,[4],0.02 ± 0.02 mol s^−1 mol^−1 dirigent protein
same,Vmax,[4]; listed as dirigent protein,0.02±0.02 mol s^−1 mol^−1 dirigent prote
same,Km,[4],10000 ± 6000 µM
same,(+)-pinoresinol-forming activity,[6]; E-[9-3H]coniferyl alcohol as substrate for one hour,< 5 % of total activity loaded onto the POROS SP-M column
same,(+)-pinoresinol formation (residual oxidizing capacity),"[6]; protein by itself, over 10 hours",< 5%
B2,Km,[7],121 ± 5.0 µM
same,Vmax,[7],25.2±0.7 μmol h^−1 mg^−1 of protein
B3,Km,[8],123 ± 6.0 µM
same,Vmax,[8],29.9±0.7 μmol h^−1 mg^−1 of protein
